pIC50: −log10 of the molar value.
How the values were obtained:
[1] = test system: MCF-7 cells; assay: MCF-7 Proliferation Inhibition Assay; type: cell-based, human; settings: 10 pM dose of E2, 7 days incubation, CellTiterGlo viability
Description: Proliferation Assay in MCF-7 and T47D Cells
MCF-7 and T47D cells were stripped for 3 days in phenol red-free RPMI1640 media containing 10% charcoal-stripped fetal bovine serum (CS-FBS) and 1% Penicillin/streptomycin (P/S). Cells (volume of 90 μl/well) were seeded in 96 well plates at a density of 2500 cells/well for MCF-7 cells and 1500 cells/well for T47D cells. On the following day, plates were treated with the test compounds (10× concentration in media, volume of 10 μl/well added) both in the absence and in the presence of two doses of E2 (10 pM and 1 nM). The cells were incubated with test compounds for 7 days. The viability of the cells was assessed using CellTiterGlo (Promega, Cat #G7573) according to the manufacturer's instructions. Growth inhibition curves and IC50 values were calculated using the GraphPadPrism 6.0 software. Data values shown in Table 1 were obtained using the 10 pM dose of E2.

[2] = test system: E2-induced increase in uterine weight in immature rats; assay: Immature Rat Uterine Assay; type: in vivo, Sprague-Dawley rat; settings: oral dose of 3 mg/kg in combination with E2 (0.01 mg/kg), once daily for three consecutive days
Description: Immature Rat Uterine Assay
Sprague-Dawley rat pups were weaned at 19 days of age, randomized into groups (n=6), and administered vehicle (aqueous 20% HPBCD, 10% PEG400 in H2O), E2 (0.01 mg/kg), test compounds (0.1 mg/kg-3 mg/kg) in combination with E2 (0.01 mg/kg), either by subcutaneous injection or by oral gavage, once daily for three consecutive days. Twenty-four hours after the final dose, all animals were killed by carbon dioxide inhalation. Body weights and wet uterine weights were recorded for each animal. GraphPadPrism 6.0 software was used to analyze data.

Structure (SMILES)	pIC50 ([1]; Homo sapiens, MCF7, 168 h)	wet uterine weight [2]	pIC50 [1]
Cc1ccccc1-c1c(F)c2c3cn[nH]c3ccc2n1Cc1ccc(CCNCCCF)cc1 [Compound D-102, 3-Fluoro-N-(4-((8-fluoro-7-(o-tolyl)pyrrolo[3,2-e]indazol-6(3H)-yl)methyl)phenethyl)propan-1-amine]	> 9.00	suppressed wet uterine weight to baseline	–
CCCNCCc1ccc(Cn2c(-c3ccc(OC)cc3C)c(F)c3cc(O)ccc32)cc1 [Compound D-96, 3-Fluoro-2-(4-methoxy-2-methylphenyl)-1-(4-(2-(propylamino)ethyl)benzyl)-1H-indol-5-ol]	> 9.00	–	–
Oc1ccc2c(c1)CC[C@H](c1ccccc1)[C@@H]2c1ccc(CCNCC2CC2)cc1 [LA-19, (5R,6S)-5-(4-(2-((Cyclopropylmethyl)amino)ethyl)phenyl)-6-phenyl-5,6,7,8-tetrahydronaphthalen-2-ol]	> 9.00	–	–
Cc1ccccc1C1=C(Cc2ccc(CCNC3CC3)cc2)c2ccc(O)cc2OCC1 [Bx-06, 5-(4-(2-(Cyclopropylamino)ethyl)benzyl)-4-(o-tolyl)-2,3-dihydrobenzo[b]oxepin-8-ol]	> 9.00	–	–
CCCNCCc1ccc(C2c3ccc(O)cc3CCC2c2ccc(C(C)C)cc2)cc1 (stereo not shown) [LA-32, 6-(4-Isopropylphenyl)-5-(4-(2-(propylamino)ethyl)phenyl)-5,6,7,8-tetrahydronaphthalen-2-ol]	> 9.00	–	–
CCNCCc1ccc(Cn2c(-c3ccccc3C)c(F)c3cc(O)ccc32)cc1 [Compound D-29, 1-(4-(2-(Ethylamino)ethyl)benzyl)-3-fluoro-2-(o-tolyl)-1H-indol-5-ol]	> 9.00	–	–
CCCCNCCc1ccc(Cn2c(-c3ccccc3C)c(F)c3cc(O)ccc32)cc1 [Compound D-68, 1-(4-(2-(Butylamino)ethyl)benzyl)-3-fluoro-2-(o-tolyl)-1H-indol-5-01]	–	–	> 9.00
Cc1ccccc1-c1c(F)c2cc(O)ccc2n1Cc1ccc(CCNC2CCC2)cc1 [Compound D-46, 1-(4-(2-(Cyclobutylamino)ethyl)benzyl)-3-fluoro-2-(o-tolyl)-1H-indol-5-ol]	> 9.00	–	–
CCCN1CC(=Cc2ccc(Oc3c(-c4ccccc4C)sc4cc(O)ccc34)cc2)C1 [BT-17, 3-(4-((1-Propylazetidin-3-ylidene)methyl)phenoxy)-2-(o-tolyl)benzo[b]thiophen-6-ol]	> 9.00	–	–
Oc1ccc2c(c1)c(F)c(-c1ccccc1Cl)n2Cc1ccc(CCNC2CC2)cc1 [Compound D-37, 2-(2-Chlorophenyl)-1-(4-(2-(cyclopropylamino)ethyl)benzyl)-3-fluoro-1H-indol-5-ol]	> 9.00	–	–
CCCNCCc1ccc(Cn2c(-c3ccccc3C)c(F)c3c4cn[nH]c4ccc32)cc1 [Compound D-91, N-(4-((8-fluoro-7-(o-tolyl)pyrrolo[3,2-e]indazol-6(3H)-yl)methyl)phenethyl)propan-1-amine]	> 9.00	–	–
CCNCCc1ccc(Cn2c(-c3ccccc3C)c(F)c3c4cn[nH]c4ccc32)cc1 [Compound D-85, N-Ethyl-2-(4-((8-fluoro-7-(o-tolyl)pyrrolo[3,2-e]indazol-6(3H)-yl)methyl)phenyl)ethan-1-amine]	> 9.00	–	–

From patent publication US12497386B2, “Estrogen receptor-modulating compounds” (RADIUS PHARMACEUTICALS, INC., priority 2018, dated 2025)
